This is an account of results in ChEMBL document CHEMBL5346973 (J Med Chem, 2023).

Common to all, as to format: cell-based
For assay [1], the target named is Nicotinic acetylcholine receptor alpha9/alpha10 (Rattus norvegicus, UniProt P43144+Q9JLB5). The experiment in a line: Antagonist activity at rat alpha9alpha10 nACh receptor expressed in Xenopus oocyte assessed as inhibition of acetylcholine-induced response at -70 mV holding potential by voltage-clamp based electrophysiological assay.
For assay [2], the target named is Nicotinic acetylcholine receptor alpha9/alpha10 (Rattus norvegicus) (UniProt P43144+Q9JLB5). The experiment in a line: Antagonist activity at rat alpha9alpha10 nACh receptor expressed in Xenopus oocyte assessed as inhibition of acetylcholine-induced response at -70 mV holding potential at 10 uM measured after 5 mins by voltage-clamp based electrophysiological assay.

Assay [3] addresses Neuronal acetylcholine receptor subunit alpha-7 (Rattus norvegicus, UniProt Q05941). The experiment in a line: Antagonist activity at rat alpha7 nACh receptor expressed in Xenopus oocyte assessed as inhibition of acetylcholine-induced response at -70 mV holding potential by voltage-clamp based electrophysiological assay.

The structures appear in SMILES notation. Active and inactive are the calls of the source. No cut-off for these calls is given here. Where a SMILES comes first, the peptide text is derived from it.

Nicotinic acetylcholine receptor alpha9/alpha10, sequence (P43144 whole entry): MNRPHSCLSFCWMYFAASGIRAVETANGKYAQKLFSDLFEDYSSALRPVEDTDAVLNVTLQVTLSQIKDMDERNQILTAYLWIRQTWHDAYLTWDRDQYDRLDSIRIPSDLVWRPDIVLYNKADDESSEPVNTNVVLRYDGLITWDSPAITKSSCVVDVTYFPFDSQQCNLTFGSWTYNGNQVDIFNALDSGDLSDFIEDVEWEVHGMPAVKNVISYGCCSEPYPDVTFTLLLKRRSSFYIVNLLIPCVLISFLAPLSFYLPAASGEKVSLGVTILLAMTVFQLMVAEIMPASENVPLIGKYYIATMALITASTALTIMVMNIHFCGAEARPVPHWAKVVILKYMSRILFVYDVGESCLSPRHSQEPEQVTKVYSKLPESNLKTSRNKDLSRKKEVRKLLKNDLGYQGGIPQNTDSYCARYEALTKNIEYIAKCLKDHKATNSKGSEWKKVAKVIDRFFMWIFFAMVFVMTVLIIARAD
Nicotinic acetylcholine receptor alpha9/alpha10, sequence (Q9JLB5 whole entry): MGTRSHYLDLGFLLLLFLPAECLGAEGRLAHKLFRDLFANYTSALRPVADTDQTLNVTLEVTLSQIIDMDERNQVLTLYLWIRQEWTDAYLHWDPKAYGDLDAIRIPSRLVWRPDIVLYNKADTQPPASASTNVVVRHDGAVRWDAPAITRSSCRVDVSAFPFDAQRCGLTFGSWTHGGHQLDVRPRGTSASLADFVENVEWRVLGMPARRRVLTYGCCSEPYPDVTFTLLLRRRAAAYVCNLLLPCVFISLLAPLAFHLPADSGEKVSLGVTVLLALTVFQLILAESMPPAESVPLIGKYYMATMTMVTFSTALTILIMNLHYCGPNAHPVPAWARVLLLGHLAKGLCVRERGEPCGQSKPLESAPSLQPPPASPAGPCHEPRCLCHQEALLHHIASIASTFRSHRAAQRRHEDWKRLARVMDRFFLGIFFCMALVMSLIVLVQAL
Neuronal acetylcholine receptor subunit alpha-7, sequence (Q05941 whole entry): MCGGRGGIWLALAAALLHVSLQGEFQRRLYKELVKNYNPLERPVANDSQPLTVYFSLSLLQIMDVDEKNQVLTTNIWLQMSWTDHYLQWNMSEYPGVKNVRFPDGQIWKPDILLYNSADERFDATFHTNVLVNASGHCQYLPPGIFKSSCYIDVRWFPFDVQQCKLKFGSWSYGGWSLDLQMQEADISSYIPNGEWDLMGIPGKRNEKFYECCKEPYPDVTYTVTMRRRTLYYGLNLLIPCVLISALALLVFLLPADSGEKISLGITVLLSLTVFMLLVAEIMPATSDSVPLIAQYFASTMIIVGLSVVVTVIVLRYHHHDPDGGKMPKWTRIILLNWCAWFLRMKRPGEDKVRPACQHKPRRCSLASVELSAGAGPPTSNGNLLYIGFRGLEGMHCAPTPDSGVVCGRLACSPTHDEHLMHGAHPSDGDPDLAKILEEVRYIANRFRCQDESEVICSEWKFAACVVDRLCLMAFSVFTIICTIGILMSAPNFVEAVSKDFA

With `CC[C@H](C)[C@@H]1NC(=O)[C@H](CCCNC(=N)N)NC(=O)[C@H](CCCNC(=N)N)NC(=O)[C@@H](NC(=O)[C@H](Cc2ccc(O)cc2)NC(=O)[C@H](CCCNC(=N)N)NC(=O)[C@H](CCCNC(=N)N)NC(=O)[C@H](CCCNC(=N)N)NC(=O)[C@H](CCCNC(=N)N)NC(=O)[C@H](CC(=O)O)NC(=O)[C@H](Cc2ccc(O)cc2)NC(=O)[C@@H]2CCCN2C(=O)[C@H](CO)NC(=O)[C@H](C)NC(=O)[C@@H]2CSSC[C@H](NC(=O)[C@@H](N)[C@@H](C)O)C(=O)N[C@@H](C)C(=O)N[C@@H](CO)C(=O)N[C@@H](CO)C(=O)N[C@@H](C)C(=O)N[C@@H](CCCNC(=N)N)C(=O)N[C@@H](Cc3ccc(O)cc3)C(=O)N2)CSSC[C@@H](C(=O)N[C@H](C(=O)O)C(C)C)NC(=O)[C@H](C)NC(=O)[C@H](CC(=O)O)NC(=O)[C@H]([C@@H](C)O)NC1=O` (HELM PEPTIDE1{T.C.A.S.S.A.R.Y.C.A.S.P.Y.D.R.R.R.R.Y.C.R.R.I.T.D.A.C.V}$PEPTIDE1,PEPTIDE1,2:R3-9:R3|PEPTIDE1,PEPTIDE1,20:R3-27:R3$$$V2.0), the concentration for half-maximal inhibition (IC50) (in general, the concentration at which inhibition is half-maximal) in assay [1] was above 10000 nM. The result in assay [2] was inactive.

Regarding `CC[C@H](C)[C@@H]1NC(=O)[C@H](C)NC(=O)[C@H](C)NC(=O)[C@@H](NC(=O)[C@H](Cc2ccc(O)cc2)NC(=O)[C@H](C)NC(=O)[C@H](C)NC(=O)[C@H](C)NC(=O)[C@H](C)NC(=O)[C@H](CC(=O)O)NC(=O)[C@H](Cc2ccc(O)cc2)NC(=O)[C@@H]2CCCN2C(=O)[C@H](CO)NC(=O)[C@H](C)NC(=O)[C@@H]2CSSC[C@H](NC(=O)[C@@H](N)[C@@H](C)O)C(=O)N[C@@H](C)C(=O)N[C@@H](CO)C(=O)N[C@@H](CO)C(=O)NCC(=O)N[C@@H](C)C(=O)N[C@@H](Cc3ccc(O)cc3)C(=O)N2)CSSC[C@@H](C(=O)N[C@H](C(=O)O)C(C)C)NC(=O)[C@H](C)NC(=O)[C@H](CC(=O)O)NC(=O)[C@H]([C@@H](C)O)NC1=O` (HELM PEPTIDE1{T.C.A.S.S.G.A.Y.C.A.S.P.Y.D.A.A.A.A.Y.C.A.A.I.T.D.A.C.V}$PEPTIDE1,PEPTIDE1,2:R3-9:R3|PEPTIDE1,PEPTIDE1,20:R3-27:R3$$$V2.0), in assay [1], the half-inhibitory concentration (IC50) was above 10000 nM. Besides, the outcome in assay [2] was inactive.

`CC[C@H](C)[C@@H]1NC(=O)[C@H](CCCNC(=N)N)NC(=O)[C@H](CCCNC(=N)N)NC(=O)[C@@H](NC(=O)[C@H](Cc2ccc(O)cc2)NC(=O)[C@H](C)NC(=O)[C@H](C)NC(=O)[C@H](C)NC(=O)[C@H](C)NC(=O)[C@H](CC(=O)O)NC(=O)[C@H](Cc2ccc(O)cc2)NC(=O)[C@@H]2CCCN2C(=O)[C@H](CO)NC(=O)[C@H](CCCNC(=N)N)NC(=O)[C@@H]2CSSC[C@H](NC(=O)[C@@H](N)[C@@H](C)O)C(=O)N[C@@H](CCCNC(=N)N)C(=O)N[C@@H](CO)C(=O)N[C@@H](CCCNC(=N)N)C(=O)NCC(=O)N[C@@H](CCCNC(=N)N)C(=O)N[C@@H](Cc3ccc(O)cc3)C(=O)N2)CSSC[C@@H](C(=O)N[C@H](C(=O)O)C(C)C)NC(=O)[C@H](C)NC(=O)[C@H](CC(=O)O)NC(=O)[C@H]([C@@H](C)O)NC1=O` (HELM PEPTIDE1{T.C.R.S.R.G.R.Y.C.R.S.P.Y.D.A.A.A.A.Y.C.R.R.I.T.D.A.C.V}$PEPTIDE1,PEPTIDE1,2:R3-9:R3|PEPTIDE1,PEPTIDE1,20:R3-27:R3$$$V2.0): the concentration for half-maximal inhibition (IC50) in assay [1] was above 10000 nM. Besides, in assay [2], the result was inactive.

In the case of `CC[C@H](C)[C@@H]1NC(=O)[C@H](CCCNC(=N)N)NC(=O)[C@H](CCCNC(=N)N)NC(=O)[C@@H]2CSSC[C@H](NC(=O)[C@H](Cc3ccc(O)cc3)NC(=O)[C@H](CCCNC(=N)N)NC(=O)CNC(=O)[C@H](CO)NC(=O)[C@H](CO)NC(=O)[C@H](C)NC(=O)[C@@H](NC(=O)[C@@H](N)[C@@H](C)O)CSSC[C@@H](C(=O)N[C@H](C(=O)O)C(C)C)NC(=O)[C@H](C)NC(=O)[C@H](CC(=O)O)NC(=O)[C@H]([C@@H](C)O)NC1=O)C(=O)N[C@@H](CCCNC(=N)N)C(=O)N[C@@H](CO)C(=O)N1CCC[C@H]1C(=O)N[C@@H](Cc1ccc(O)cc1)C(=O)N[C@@H](CC(=O)O)C(=O)N[C@@H](CCCNC(=N)N)C(=O)N[C@@H](CCCNC(=N)N)C(=O)N[C@@H](CCCNC(=N)N)C(=O)N[C@@H](CCCNC(=N)N)C(=O)N[C@@H](Cc1ccc(O)cc1)C(=O)N2`, the results for the IC50 in assay [1] and in assay [3] were 37 nM and 9050 nM, respectively.

`CC[C@H](C)[C@H]1NC(=O)[C@H](CCCNC(=N)N)NC(=O)[C@H](CCCNC(=N)N)NC(=O)[C@@H](NC(=O)[C@H](Cc2ccc(O)cc2)NC(=O)[C@H](CCCNC(=N)N)NC(=O)[C@H](CCCNC(=N)N)NC(=O)[C@H](CCCNC(=N)N)NC(=O)[C@H](CCCNC(=N)N)NC(=O)[C@H](CC(=O)O)NC(=O)[C@H](Cc2ccc(O)cc2)NC(=O)[C@@H]2CCCN2C(=O)[C@H](CO)NC(=O)[C@H](CCCNC(=N)N)NC(=O)[C@@H]2CSSC[C@H](NC(=O)[C@@H](N)[C@@H](C)O)C(=O)N[C@@H](C)C(=O)N[C@@H](CO)C(=O)N[C@@H](CO)C(=O)NCC(=O)N[C@@H](CCCNC(=N)N)C(=O)N[C@@H](Cc3ccc(O)cc3)C(=O)N2)CSSC[C@@H](C(=O)N[C@H](C(=O)O)C(C)C)NC(=O)[C@H](C)NC(=O)[C@H](CC(=O)O)NC(=O)[C@H]([C@@H](C)O)NC1=O`: the figures for the 50% inhibitory concentration (IC50) in assay [1] and in assay [3] were 74 nM and 1130 nM, respectively.

Turning to `CC(C)C[C@H](NC(=O)[C@H](CCCCN)NC(=O)[C@H](CC(N)=O)NC(=O)[C@@H]1CCCN1C(=O)[C@H](CCC(N)=O)NC(=O)[C@H](C)NC(=O)CNC(=O)[C@H](CO)NC(=O)[C@H](CCCCN)NC(=O)[C@H](CCC(=O)O)NC(=O)[C@H](CC(C)C)NC(=O)[C@H](CS)NC(=O)[C@@H](CCCNC(=N)N)NC(=O)[C@@H](N)C(C)C)C(=O)N[C@@H](Cc1ccccc1)C(=O)N[C@@H](CCCNC(=N)N)C(=O)N1CCC[C@H]1C(=O)N1CCC[C@H]1C(=O)N[C@@H](CS)C(=O)N[C@@H](CS)C(=O)N[C@@H](CCC(N)=O)C(=O)N[C@@H](CCCCN)C(=O)NCC(=O)N1CCC[C@H]1C(=O)N[C@@H](CO)C(=O)N[C@@H](Cc1ccccc1)C(=O)N[C@@H](C)C(=O)N[C@@H](CCCNC(=N)N)C(=O)N[C@@H](Cc1cnc[nH]1)C(=O)N[C@@H](CO)C(=O)N[C@@H](CCCNC(=N)N)C(=O)N[C@@H](CS)C(=O)N[C@H](C(=O)N[C@@H](Cc1ccc(O)cc1)C(=O)N[C@@H](Cc1ccc(O)cc1)C(=O)N[C@H](C(=O)N[C@@H](CCC(N)=O)C(=O)N[C@@H](CO)C(=O)N[C@@H](CCCNC(=N)N)C(=O)N[C@@H](CCC(=O)O)C(=O)O)[C@@H](C)O)C(C)C`, the IC50 in assay [1] was found to be 1200 nM.
